Assay results published in ChEMBL document CHEMBL5055639, “ω-Functionalized Lipid Prodrugs of HIV NtRTI Tenofovir with Enhanced Pharmacokinetic Properties” (J Med Chem, 2021).

How the values were obtained:
[1] = Therapeutic index, ratio of CC50 for cytotoxicity against HEK293T cells to IC50 for antiviral activity against human immunodeficiency virus expressed in HEK293T cells; format: toxicity, cell-based; settings: read-out: Ratio CC50/IC50
HEK-293T [2] = test: Cytotoxicity against HEK293T cells assessed as reduction in cell viability measured after 48 hrs by CellTiter 96 Aqueous One Solution reagent based cell proliferation assay; settings: human
Cytochrome P450 2D6 = Cytochrome P450 2D6 (Homo sapiens, UniProt P10635); test: Inhibition of human recombinant CYP2D6 expressed in insect microsome using (3-[2-([…]-N-methylammonium)-ethyl]-7-methoxy-4-methylcoumarin iodide as a substrate incubated for 30 mins followed by addition of NADPH regenerating system measured immediately by fluorescence based analysis; format: ADME, microsomes
Cytochrome P450 2D6, sequence (P10635 whole entry): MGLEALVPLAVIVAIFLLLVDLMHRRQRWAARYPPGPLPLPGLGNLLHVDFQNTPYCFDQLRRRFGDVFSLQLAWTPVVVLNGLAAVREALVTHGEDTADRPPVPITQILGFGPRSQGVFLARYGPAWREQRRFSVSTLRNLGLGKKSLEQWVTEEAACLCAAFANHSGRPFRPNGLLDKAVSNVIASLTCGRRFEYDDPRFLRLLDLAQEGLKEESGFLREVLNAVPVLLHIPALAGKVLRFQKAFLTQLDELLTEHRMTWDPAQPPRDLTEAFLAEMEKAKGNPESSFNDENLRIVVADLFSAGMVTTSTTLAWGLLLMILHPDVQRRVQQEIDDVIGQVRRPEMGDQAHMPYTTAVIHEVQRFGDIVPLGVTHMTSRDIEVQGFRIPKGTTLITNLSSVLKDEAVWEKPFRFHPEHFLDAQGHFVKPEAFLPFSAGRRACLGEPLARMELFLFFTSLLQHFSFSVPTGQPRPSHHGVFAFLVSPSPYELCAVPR

Cytochrome P450 3A4 = Cytochrome P450 3A4 (Homo sapiens, UniProt P08684); test: Inhibition of human recombinant CYP3A4 expressed in insect microsome using 7-benzyloxy-4-trifluoromethylcoumarin as a substrate incubated for 30 mins followed by addition of NADPH regenerating system measured immediately by fluorescence based analysis; format: ADME, microsomes
Cytochrome P450 3A4, sequence (P08684 whole entry): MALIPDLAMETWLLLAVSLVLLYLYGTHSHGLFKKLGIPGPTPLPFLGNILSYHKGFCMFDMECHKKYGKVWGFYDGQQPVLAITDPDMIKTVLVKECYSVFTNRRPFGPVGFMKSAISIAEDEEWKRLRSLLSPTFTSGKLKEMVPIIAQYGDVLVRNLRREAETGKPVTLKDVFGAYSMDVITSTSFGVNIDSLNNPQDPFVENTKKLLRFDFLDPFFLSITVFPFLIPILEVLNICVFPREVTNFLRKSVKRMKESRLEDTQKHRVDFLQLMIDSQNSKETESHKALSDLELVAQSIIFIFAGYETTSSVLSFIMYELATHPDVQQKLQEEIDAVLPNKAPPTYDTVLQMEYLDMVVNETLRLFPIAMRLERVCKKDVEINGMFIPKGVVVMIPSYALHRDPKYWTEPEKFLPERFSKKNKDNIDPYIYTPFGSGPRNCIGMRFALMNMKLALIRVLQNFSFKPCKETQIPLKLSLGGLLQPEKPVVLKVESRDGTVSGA

[3] = test system: Human immunodeficiency virus; test: Potency index, ratio of test compound IC50 to TXL IC50 for antiviral activity against human immunodeficiency virus expressed in HEK293T cells coexpressing firefly luciferase gene incubated for 48 hrs by Bright-Glo luciferase assay; format: functional
[4] = test system: Human immunodeficiency virus; test: Antiviral activity against human immunodeficiency virus expressed in HEK293T cells coexpressing firefly luciferase gene incubated for 48 hrs by Bright-Glo luciferase assay; format: functional, organism-based; settings: Human immunodeficiency virus 1, HEK-293T
[5] = Metabolic stability in human liver microsomes assessed as half life at 3 uM measured up to 30 min in presence of NADPH by LC-MS/MS analysis; format: ADME, Microsome; settings: 0.5 h
[6] = Tmax in C57BL/6 mouse liver at 10 mg/kg, po measured up to 24 hrs by LC-MS/MS analysis; format: ADME, organism-based; settings: mouse, in vivo, po, 10 mg/kg, 24 h
[7] = Prodrug conversion in C57BL/6 mouse plasma assessed as AUC(0 to 24 hrs) of TFV metabolite at 10 mg/kg, po measured up to 24 hrs by LC-MS/MS analysis; format: ADME, organism-based; set-up: time < 24 hrs, dose 10 mg/kg, route po; settings: in vivo
[8] = Prodrug conversion in C57BL/6 mouse plasma assessed as Cmax of TFV metabolite at 10 mg/kg, po measured up to 24 hrs by LC-MS/MS analysis; format: ADME, organism-based; set-up: time < 24 hrs, dose 10 mg/kg, route po; settings: in vivo
[9] = Prodrug conversion in C57BL/6 mouse plasma assessed as Tmax of TFV metabolite at 10 mg/kg, po measured up to 24 hrs by LC-MS/MS analysis; format: ADME, organism-based; settings: in vivo
[10] = Tmax in C57BL/6 mouse plasma at 10 mg/kg, po measured up to 24 hrs by LC-MS/MS analysis; format: ADME, organism-based; settings: in vivo
[11] = Ratio of prodrug AUC(0 to 24 hrs) to TFV AUC(0 to 24 hrs) in C57BL/6 mouse plasma at 10 mg/kg, po measured up to 24 hrs by LC-MS/MS analysis; format: ADME, organism-based; settings: in vivo
[12] = Ratio of prodrug AUC(0 to 24 hrs) to TFV AUC(0 to 24 hrs) in C57BL/6 mouse liver at 10 mg/kg, po measured up to 24 hrs by LC-MS/MS analysis; format: ADME, organism-based; settings: in vivo
[13] = Prodrug conversion in C57BL/6 mouse liver assessed as Tmax of TFV metabolite at 10 mg/kg, po measured up to 24 hrs by LC-MS/MS analysis; format: ADME, organism-based; settings: in vivo
[14] = Prodrug conversion in C57BL/6 mouse liver assessed as Cmax of TFV metabolite at 10 mg/kg, po measured up to 24 hrs by LC-MS/MS analysis; format: ADME, organism-based; set-up: dose 10 mg/kg, time < 24 hrs, route po; settings: in vivo
[15] = Prodrug conversion in C57BL/6 mouse liver assessed as AUC(0 to 24 hrs) of TFV metabolite at 10 mg/kg, po measured up to 24 hrs by LC-MS/MS analysis; format: ADME, organism-based; set-up: time < 24 hrs, dose 10 mg/kg, route po; settings: in vivo
[16] = Plasma protein binding in C57BL/6 mouse at 10 mg/kg, po measured up to 24 hrs by LC-MS/MS; format: ADME, organism-based; settings: read-out: PPB
[17] = Ratio of test compound t1/2 to TXL t1/2 for metabolic stability in human liver microsomes assessed as half life at 3 uM measured up to 30 min in presence of NADPH by LC-MS/MS analysis; format: ADME, Microsome; settings: 0.5 h
[18] = test system: Human immunodeficiency virus; test: Antiviral activity against human immunodeficiency virus expressed in HEK293T cells coexpressing firefly luciferase gene incubated for 48 hrs in absence of HSA by Bright-Glo luciferase assay; format: functional, organism-based; settings: Human immunodeficiency virus 1, HEK-293T
HEK-293T [19] = test: Cytotoxicity against HEK293T cells assessed as reduction in cell viability in absence of HSA measured after 48 hrs by CellTiter 96 Aqueous One Solution reagent based cell proliferation assay; settings: human
[20] = Therapeutic index, ratio of CC50 for cytotoxicity against HEK293T cells in absence of HSA to IC50 for antiviral activity against human immunodeficiency virus expressed in HEK293T cells in absence of HSA; format: toxicity, cell-based; settings: read-out: Ratio CC50/IC50

Structure (SMILES)	selectivity ratio [1]	CC50 (HEK-293T [2]) [µM]	IC50 (Cytochrome P450 2D6) [µM]	IC50 (Cytochrome P450 3A4) [µM]	IC50 [4] [µM]	t1/2 [5] [h]	further results
CCCCCCCCCCCCCCCCCCCCOP(=O)(O)CO[C@H](C)Cn1cnc2c(N)ncnc21.N	104	13.2	33.2	50	0.127		Ratio IC50 [3]: 7
CCCCCCCCCCCCCCCOP(=O)(O)CO[C@H](C)Cn1cnc2c(N)ncnc21.N	> 49	> 100			2.06	0.217	
C[C@H](Cn1cnc2c(N)ncnc21)OCP(=O)(O)OCCCCCCCCCCCCCCCCCCCC(F)(F)F.N	603	72.4	> 20	> 20	0.12	> 2	
C[C@H](Cn1cnc2c(N)ncnc21)OCP(=O)(O)OCCCOCCCCCCCCCCCCCCCC(F)(F)F.N	> 2040	> 100	> 20	> 20	0.049	> 2	Tmax [6]: 2 h; AUC [7]: 337 ng·h/mL; Cmax [8]: 22.1 ng/mL; Tmax [9]: 8 h; Tmax [10]: 2 h; Ratio AUC [11]: 3.8; Ratio AUC [12]: 4.81; Tmax [13]: 24 h; Cmax [14]: 1120 ng/mL; AUC [15]: 22600 ng·h/mL; fraction unbound at 24 h [16]: < 0.001
CCCCCCCCCCCCCCCCCCOP(=O)(O)CO[C@H](C)Cn1cnc2c(N)ncnc21.N	895	84.1			0.094	0.217	
C#CCCCCCCCCCCCCCCCCOP(=O)(O)CO[C@H](C)Cn1cnc2c(N)ncnc21.N	> 49	> 100			2.03	> 2	
C#CCCCCCCCCCCCCCOP(=O)(O)CO[C@H](C)Cn1cnc2c(N)ncnc21.N	> 3	> 100			28.6	1.57	Ratio [17]: >= 3
C[C@H](Cn1cnc2c(N)ncnc21)OCP(=O)(O)O [TENOFOVIR ANHYDROUS]	22	35.4	> 50	45.8	1.6		IC50 [18]: 2.06 µM; CC50 (HEK-293T [19]): > 100 µM; selectivity ratio [20]: > 49
